Results on 3 compounds are retold here after patent US20110245218A1 (priority 2010, published 2011).

What is called melting point is the temperature, or range, at which the solid turns liquid.

SMILES strings stand for the structures.

In turn, `CN1C(=O)C(SC(=N)N)=C(SC(=N)N)C1=O` [Compound 1, [(1-methyl-2,5-dioxo-2,5-dihydro-1H-pyrrole-3,4-diyl)disulphanediyl]bis(aminomethaniminium) dichloride] showed a melting point of 163 to 164 °C.

With `CN1C(=O)C(S)=C(S)C1=O`, the melting point is 145 to 148 °C.

`CN1C(=O)C(S)=C(SC(=N)N)C1=O` [Compound 27, 4-{[amino(iminio)methyl]sulphanyl}-1-methyl-2,5-dioxo-2,5-dihydro-1H-pyrrole-3-thiolate] showed a melting point of 150 to 152 °C.
